Where “and” joins values, the source holds several entries; their conditions need not be identical. Equal entries are not always repeated. Where two headings read alike, the source gives them in different places.
Key:
[1] = target: T1, hTRPV1 (Homo sapiens, UniProt Q8NER1); assay: whole-cell patch-clamp at -40 mV, SB-366791 inhibition of capsaicin-activated hTRPV1 current and recovery; format: cell-based; parameters: we used the same wild-type full-length construct to determine the hTRPV1 structure; expressed in transfected cells; host or cells: HEK293T ΔPIEZO1 cells, pIRES-EGFP plasmid; I (Cap), hTRPV1 peak current amplitude / I (SB), hTRPV1 peak current amplitude: unit not given here
[2] = target: T2, hTRPV1 E570A (Homo sapiens, UniProt Q8NER1, E570A); assay: whole-cell patch-clamp, capsaicin on hTRPV1 E570A; format: cell-based; settings: 10 μM capsaicin
T2 construct: expressed in transfected cells; host or cells: HEK293 cells

[3] = target: T3, hTRPV1 R557A (Homo sapiens, UniProt Q8NER1, R557A); assay: whole-cell patch-clamp, capsaicin on hTRPV1 R557A; format: cell-based; settings: 10 μM capsaicin
T3 construct: expressed in transfected cells; host or cells: HEK293 cells

[4] = target: T4, hTRPV1 Y511A (Homo sapiens, UniProt Q8NER1, Y511A); assay: whole-cell patch-clamp, capsaicin on hTRPV1 Y511A; format: cell-based; settings: not shown
T4 construct: expressed in transfected cells; host or cells: HEK293T ΔPIEZO1 cells, pIRES-EGFP plasmid

[5] = test system: squirrel TRPV1; parameters: method as in PMID 27638213; settings: cited from earlier work
[6] = test system: mouse TRPV1; parameters: method as in PMID 27638213; settings: cited from earlier work
[7] = test system: rat TRPV1; parameters: method as in PMID 27638213; settings: cited from earlier work
[8] = test system: rat TRPV1 Y511A; settings: cited from earlier work
[9] = test system: glutamatergic transmission in a subset of neurons; settings: pre-synaptic TRPV1-dependent mechanism following peripheral inflammation; cited from earlier work
[10] = target: T2, hTRPV1 E570A; assay: whole-cell patch-clamp, SB-366791 on pH-induced current, E570A; format: cell-based; settings: pH 5
[11] = test system: acute pain; settings: co-administered with a calcium channel blocker; mice; cited from earlier work
[12] = test system: panel of 47 different targets, including G-protein-coupled receptors and voltage-gated calcium-channels; settings: cited from earlier work
[13] = target: T4, hTRPV1 Y511A; assay: whole-cell patch-clamp, SB-366791 inhibition of pH 5-induced current, Y511A; format: cell-based; settings: for I / Imax: individual cells
[14] = target: T5, hTRPV1 L547R (Homo sapiens, UniProt Q8NER1, L547R); assay: whole-cell patch-clamp, SB-366791 inhibition of pH 5-induced current, L547R; format: cell-based
T5 construct: we used the same wild-type full-length construct to determine the hTRPV1 structure; expressed in transfected cells; host or cells: HEK293T ΔPIEZO1 cells, pIRES-EGFP plasmid

[15] = target: T6, hTRPV1 T550A (Homo sapiens, UniProt Q8NER1, T550A); assay: whole-cell patch-clamp, SB-366791 inhibition of pH 5-induced current, T550A; format: cell-based
T6 construct: we used the same wild-type full-length construct to determine the hTRPV1 structure; expressed in transfected cells; host or cells: HEK293T ΔPIEZO1 cells, pIRES-EGFP plasmid

[16] = target: T7, hTRPV1 L515A (Homo sapiens, UniProt Q8NER1, L515A); assay: whole-cell patch-clamp, SB-366791 inhibition of pH 5-induced current, L515A; format: cell-based; settings: for I / Imax: +80 mV, individual cells
T7 construct: we used the same wild-type full-length construct to determine the hTRPV1 structure; expressed in transfected cells; host or cells: HEK293T ΔPIEZO1 cells, pIRES-EGFP plasmid

[17] = target: T1, hTRPV1; assay: whole-cell patch-clamp, SB-366791 inhibition of pH 5-induced current, wild-type hTRPV1; format: cell-based; parameters: we used the same wild-type full-length construct to determine the hTRPV1 structure; expressed in transfected cells; host or cells: HEK293T ΔPIEZO1 cells, pIRES-EGFP plasmid
[18] = target: T8, hTRPV1 E693A (Homo sapiens, UniProt Q8NER1, E693A); assay: whole-cell patch-clamp, SB-366791 inhibition of pH 5-induced current, E693A; format: cell-based; settings: for I / Imax: individual cells
T8 construct: we used the same wild-type full-length construct to determine the hTRPV1 structure; expressed in transfected cells; host or cells: HEK293T ΔPIEZO1 cells, pIRES-EGFP plasmid

[19] = target: T1, hTRPV1; settings: no apparent change in the maximal response; cited from earlier work
[20] = test system: opiate-mediated behaviors; parameters: method as in PMID 27730727; settings: rat studies; cited from earlier work
[21] = test system: bone cancer pain; settings: cited from earlier work
[22] = target: T3, hTRPV1 R557A; assay: whole-cell patch-clamp, SB-366791 on pH-induced current, R557A; format: cell-based; settings: pH 5
[23] = target: the molecule itself; assay: cryo-EM structure; apo hTRPV1 in cNW11 nanodiscs with soybean lipids or POPC:POPE:POPG (3:1:1); 150 mM NaCl, 20 mM Tris pH 8.0, 1 mM bME

COc1cc(CNC(=O)CCCC/C=C/C(C)C)ccc1O [capsaicin]
I (Cap), hTRPV1 peak current amplitude ([1]; Fig 2b, 1 µM capsaicin, -40 mV, individual cells, listed as Cap): 0.380 and 0.430 and 4.800 and 2.000 and 1.600 | currents induced by capsaicin [2]: did not induce any currents | currents induced by capsaicin [3]: did not induce any currents | sensitivity to capsaicin [4]: insensitive | EC50 [5]: 529 ± 32 nM | EC50 [6]: 776 ± 52 nM | EC50 [7]: 527 ± 53 nM | sensitivity to capsaicin [8]: insensitive

COc1cccc(NC(=O)/C=C/c2ccc(Cl)cc2)c1 [SB-366791, N-(3-methoxyphenyl)−4-chlorocinnamide]
effect on glutamatergic transmission [9]: inhibiting glutamatergic transmission | inhibition of capsaicin-activated hTRPV1 ([1]; 10 µM SB-366791 co-applied with 1 µM capsaicin, -40 mV): complete inhibition | I (SB), hTRPV1 peak current amplitude ([1]; Fig 2b, 10 µM SB-366791 in the presence of 1 µM capsaicin, 10 s after SB-366791 application, individual cells, listed as SB): 0.010 and 0.020 and 0.060 and 0.011 | inhibition of current induced by changes in pH [10]: did not induce any inhibition | synergistic increase of antinociceptive effect [11]: 15 fold | effect on a panel of 47 different targets [12]: little or no effect | IC50 ([13]; +80 mV, mean ± SEM, n = 7): 253 ± 75 nM | I / Imax ([13]; SB-366791 0.0001 μM, +80 mV): 0.951 and 0.974 and 0.889 and 1.022 | I / Imax ([13]; SB-366791 0.001 μM, +80 mV): 0.916 and 0.924 and 0.887 and 0.985 | I / Imax ([13]; SB-366791 0.01 μM, +80 mV): 0.893 and 0.810 and 0.838 and 0.939 | I / Imax ([13]; SB-366791 0.1 μM, +80 mV): 0.831 (2×) and 0.718 (2×) | I / Imax ([13]; SB-366791 1 μM, +80 mV): 0.638 and 0.474 and 0.443 and 0.511 | I / Imax ([13]; SB-366791 10 μM, +80 mV): 0.537 and 0.399 and 0.380 and 0.562 | proportion of blocker-resistant current ([13]; mean ± SEM, n = 7): 0.490 ± 0.070 | sensitivity to inhibition by the blocker [14]: completely insensitive | sensitivity to inhibition by the blocker [15]: completely insensitive | sensitivity to inhibition by the blocker [16]: completely insensitive | I / Imax ([16]; SB-366791 0.0001 μM): 1.151 and 1.003 and 0.775 and 1.067 | I / Imax ([16]; SB-366791 0.001 μM): 0.856 and 0.881 and 0.592 and 0.984 | I / Imax ([16]; SB-366791 0.01 μM): 0.762 and 0.808 and 0.507 and 0.880 | I / Imax ([16]; SB-366791 0.1 μM): 0.817 and 0.939 and 0.604 and 0.943 | I / Imax ([16]; SB-366791 1 μM): 0.888 and 1.233 and 0.959 and 1.206 | I / Imax ([16]; SB-366791 10 μM): 0.734 and 1.125 and 1.046 and 1.211 | IC50 ([17]; WT, pH 5, Hill fits of individual cells, read-out: SB-366791 IC50): 5.41 nM and 45 nM and 38 nM and 6.46 nM and 26 nM and 13 nM and 15 nM | SB-366791-resistant fraction ([17]; WT, pH 5, individual cells): 0.177 and 0.291 and 0.285 and 0.295 and 0.181 and 0.106 and 0.205 | IC50 ([17]; WT, response to reviewers, read-out: inhibition by SB-366791, IC50): 21 nM | IC50 ([17]; wild-type, pH 5, +80 mV, mean ± SEM, n = 7, read-out: IC50 of SB-366791): 21 ± 6 nM | proportion of blocker-resistant current ([17]; wild-type, pH 5, mean ± SEM, n = 7): 0.220 ± 0.027 and 0.22 ± 0.03 | I / Imax ([18]; SB-366791 0.0001 μM, pH 5, +80 mV): 0.860 (2×) and 0.830 and 0.980 and 0.850 and 0.890 | I / Imax ([18]; SB-366791 0.01 μM, pH 5, +80 mV): 0.820 and 0.780 and 0.880 and 0.830 | IC50 ([18]; pH 5, +80 mV, mean ± SEM, n = 6, read-out: IC50 of SB-366791): 100 ± 11 nM | IC50 ([18]; pH 5, Hill fits of individual cells, read-out: SB-366791 IC50): 121 nM and 70 nM and 137 nM and 75 nM and 92 nM and 103 nM | SB-366791-resistant fraction ([18]; pH 5, individual cells): 0.417 and 0.362 and 0.602 and 0.396 and 0.427 and 0.420 | fraction of blocker-insensitive current ([18]; pH 5, mean ± SEM, n = 6): 0.440 ± 0.034 | IC50 ([18]; response to reviewers, read-out: inhibition by SB-366791, IC50): 100 nM | effect on capsaicin concentration dependence of hTRPV1-mediated calcium uptake [19]: rightward shift | effect on opiate-mediated behaviors [20]: impair opiate-mediated behaviors | effect on analgesia by systemic morphine [21]: effectively potentiate the analgesic effects of systemic morphine | inhibition of current induced by changes in pH [22]: did not induce any inhibition

B1: human TRPV1 (natural protein, UniProt Q8NER1 1-839, looked up)
chain: MKKWSSTDLGAAADPLQKDTCPDPLDGDPNSRPPPAKPQLSTAKSRTRLFGKGDSEEAFPVDCPHEEGELDSCPTITVSPVITIQRPGDGPTGARLLSQDSVAASTEKTLRLYDRRSIFEAVAQNNCQDLESLLLFLQKSKKHLTDNEFKDPETGKTCLLKAMLNLHDGQNTTIPLLLEIARQTDSLKELVNASYTDSYYKGQTALHIAIERRNMALVTLLVENGADVQAAAHGDFFKKTKGRPGFYFGELPLSLAACTNQLGIVKFLLQNSWQTADISARDSVGNTVLHALVEVADNTADNTKFVTSMYNEILMLGAKLHPTLKLEELTNKKGMTPLALAAGTGKIGVLAYILQREIQEPECRHLSRKFTEWAYGPVHSSLYDLSCIDTCEKNSVLEVIAYSSSETPNRHDMLLVEPLNRLLQDKWDRFVKRIFYFNFLVYCLYMIIFTMAAYYRPVDGLPPFKMEKTGDYFRVTGEILSVLGGVYFFFRGIQYFLQRRPSMKTLFVDSYSEMLFFLQSLFMLATVVLYFSHLKEYVASMVFSLALGWTNMLYYTRGFQQMGIYAVMIEKMILRDLCRFMFVYIVFLFGFSTAVVTLIEDGKNDSLPSESTSHRWRGPACRPPDSSYNSLYSTCLELFKFTIGMGDLEFTENYDFKAVFIILLLAYVILTYILLLNMLIALMGETVNKIAQESKNIWKLQRAITILDTEKSFLKCMRKAFRSGKLLQVGYTPDGKDDYRWCFRVDEVNWTTWNTNVGIINEDPGNCEGVKRTLSFSLRSSRVSGRHWKNFALVPLLREASARDRQSAQPEEVYLRQFSGSLKPEDAEVFKSPAASGEK
notes: human TRPV1, wild-type full-length construct; residues 1-839 by the printed numbers (models hold 115-769 or 199-754); the tags of the construct are not described; Homotetramer; Apo samples in cNW11 nanodiscs, the SB-366791 sample in GDN detergent; also called hTRPV1; hTRPV1Apo; source: HEK 293S GnTI- cells transduced with baculovirus, purified (strep resin, SEC)
stoichiometry N [23]: 4

From PMC10147690, “Human TRPV1 structure and inhibition by the analgesic SB-366791” (Nature Communications, 2023)
